This data set in a line: solubility. The class given is physicochemical. To be noted: syrup product of Example 2.

Take `O=P(O)(O)CC(CO)(CO)CO` [Phosphonic Acid, 3-hydroxy-2,2-bis(hydroxymethyl)propylphosphonic acid]: the solubility result is “soluble in water and highly polar organic solvents”.
